Consider 13 compounds from ChEMBL document CHEMBL5104166, “Lead optimization of cathepsin K inhibitors for the treatment of Osteoarthritis” (Bioorg Med Chem Lett, 2022).

For one series, the species on record is Homo sapiens. The series can be described thus: Selectivity ratio of IC50 for Cathepsin F (unknown origin) to IC50 for Cathepsin K (unknown origin).
A short description of series [1]: Oral bioavailability in rat. It counts as ADME, organism-based. As to conditions: in vivo.
Series [2] is described as follows: Half life in rat. It counts as ADME. As to conditions: in vivo.
Series [3] in a line: Oral bioavailability in rhesus monkey. The conditions noted are these: in vivo. Format: ADME, organism-based, Macaca mulatta.
Series [4] in a line: Clearance in dog. Format: ADME, Canis lupus familiaris. The conditions noted are these: in vivo.
A short description of series [5]: Intrinsic clearance in rat liver microsomes. As to conditions: read-out: CLH. It counts as ADME, Microsome.
The nature of series [6]: Unbound plasma concentration in dog at 15 mg/kg, po for 4 days. As to conditions: in vivo, 96 h, time 4 day. Format: ADME, organism-based, Canis lupus familiaris.
The nature of series [7]: Half life in dog. Format: ADME, Canis lupus familiaris. The conditions noted are these: in vivo.
The target in series [8] is Cathepsin (S and K) (Homo sapiens) (UniProt P25774+P43235). Description: Selectivity ratio of IC50 for Cathepsin S (unknown origin) to IC50 for Cathepsin K (unknown origin). Format: protein assay.
The test system of series [9] is Canis familiaris. Description: Anti-osteoarthritic activity in dog assessed as reduction in uCTX-1 level at 0.03 mg/kg, po for 4 days (reference value: 26.9%). It counts as functional. As to conditions: Canis lupus familiaris, 96 h, time 4 day.
A short description of series [10]: Plasma protein binding in dog assessed as unbound fraction at 15 mg/kg, po for 4 days. As to conditions: time 4 day. It counts as ADME, organism-based, Canis lupus familiaris.
Series [11] in a line: Unbound drug concentration in dog cartilage at 15 mg/kg, po for 4 days. Format: ADME, organism-based, Canis lupus familiaris, Cartilage tissue. The conditions noted are these: in vivo, 96 h, time 4 day.
The target in series [12] is Cathepsin (V and K) (Homo sapiens) (UniProt P43235+O60911). Description: Selectivity ratio of IC50 for Cathepsin V (unknown origin) to IC50 for Cathepsin K (unknown origin). It counts as protein assay.
Series [13] is described as follows: Drug concentration in dog cartilage at 15 mg/kg, po for 4 days. It counts as ADME, organism-based, Canis lupus familiaris, Cartilage tissue. The conditions noted are these: time 4 day, read-out: Ct.
Series [14] relates to Canis familiaris. The series can be described thus: Anti-osteoarthritic activity in dog assessed as reduction in uCTX-1 level at 15 mg/kg, po for 4 days (reference value: 26.9%). Format: functional. The conditions noted are these: Canis lupus familiaris, 96 h, time 4 day.
Series [15] can be described thus: Clearance in rhesus monkey. As to conditions: in vivo. Format: ADME, Macaca mulatta.
Series [16] has as its system Canis familiaris. Description: Anti-osteoarthritic activity in dog assessed as reduction in uCTX-1 level at 0.1 mg/kg, po for 4 days (reference value: 26.9%). It counts as functional. As to conditions: Canis lupus familiaris, 96 h, time 4 day.
Series [17] relates to Canis familiaris. Description: Anti-osteoarthritic activity in dog assessed as reduction in uCTX-1 level at 0.3 mg/kg, po for 4 days (reference value: 26.9%). Format: functional. As to conditions: Canis lupus familiaris, 96 h, time 4 day.
A short description of series [18]: Oral bioavailability in dog. Format: ADME, organism-based, Canis lupus familiaris. The conditions noted are these: in vivo.
In series [19] the target is T1, Cathepsin K (Homo sapiens, UniProt P43235).
T1 sequence (P43235 whole entry): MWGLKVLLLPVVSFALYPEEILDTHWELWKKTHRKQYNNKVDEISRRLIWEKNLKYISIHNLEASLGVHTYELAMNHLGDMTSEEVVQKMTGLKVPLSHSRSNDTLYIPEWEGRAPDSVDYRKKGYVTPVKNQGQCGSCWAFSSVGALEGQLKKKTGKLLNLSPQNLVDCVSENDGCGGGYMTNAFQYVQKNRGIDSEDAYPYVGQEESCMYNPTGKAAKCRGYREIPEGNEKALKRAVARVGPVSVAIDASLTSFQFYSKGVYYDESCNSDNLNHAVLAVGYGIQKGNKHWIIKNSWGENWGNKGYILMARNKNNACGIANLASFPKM
Description: Inhibition of human Cathepsin K.

Series [20] can be described thus: Clearance in rat. Format: ADME. The conditions noted are these: in vivo.
In series [21] the target is Cathepsin (B and K) (Homo sapiens) (UniProt P43235+P07858). Description: Selectivity ratio of IC50 for Cathepsin B (unknown origin) to IC50 for Cathepsin K (unknown origin). Format: protein assay.
A short description of series [22]: Half life in rhesus monkey. Format: ADME, Macaca mulatta. As to conditions: in vivo.
A short description of series [23]: Plasma concentration in dog at 15 mg/kg, po for 4 days. It counts as ADME, organism-based, Canis lupus familiaris. As to conditions: time 4 day.
Series [24] addresses Cathepsin (L and K) (Homo sapiens) (UniProt P43235+P07711). Description: Selectivity ratio of IC50 for Cathepsin L (unknown origin) to IC50 for Cathepsin K (unknown origin). It counts as protein assay.
Series [25] concerns the target Cathepsin K (Homo sapiens, UniProt P43235). The series can be described thus: Inhibition of humanized-rabbit Cathepsin K.

Some results are limits rather than exact numbers.

Chain of Cathepsin (L and K) (Homo sapiens) (P07711 whole entry, looked up, one chain of several): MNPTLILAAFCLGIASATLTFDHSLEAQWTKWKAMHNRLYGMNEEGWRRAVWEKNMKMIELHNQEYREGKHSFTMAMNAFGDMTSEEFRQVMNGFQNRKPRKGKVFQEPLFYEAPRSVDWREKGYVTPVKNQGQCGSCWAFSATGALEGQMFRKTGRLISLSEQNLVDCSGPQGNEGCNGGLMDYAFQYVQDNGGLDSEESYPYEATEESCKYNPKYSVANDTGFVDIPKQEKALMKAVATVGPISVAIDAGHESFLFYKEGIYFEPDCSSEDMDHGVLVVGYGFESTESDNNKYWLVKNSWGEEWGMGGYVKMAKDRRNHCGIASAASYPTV
Chain of Cathepsin (V and K) (Homo sapiens) (O60911 whole entry, looked up, one chain of several): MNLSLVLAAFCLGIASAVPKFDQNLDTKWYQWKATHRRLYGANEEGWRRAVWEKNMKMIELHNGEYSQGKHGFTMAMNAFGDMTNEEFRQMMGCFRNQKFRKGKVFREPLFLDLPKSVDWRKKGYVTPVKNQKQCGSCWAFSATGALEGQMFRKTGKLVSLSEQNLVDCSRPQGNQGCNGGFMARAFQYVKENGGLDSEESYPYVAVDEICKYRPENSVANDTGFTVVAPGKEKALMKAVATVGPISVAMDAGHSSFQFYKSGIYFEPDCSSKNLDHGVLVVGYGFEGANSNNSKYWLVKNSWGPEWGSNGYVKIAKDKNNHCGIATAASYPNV
Chain of Cathepsin (S and K) (Homo sapiens) (P25774 whole entry, looked up, one chain of several): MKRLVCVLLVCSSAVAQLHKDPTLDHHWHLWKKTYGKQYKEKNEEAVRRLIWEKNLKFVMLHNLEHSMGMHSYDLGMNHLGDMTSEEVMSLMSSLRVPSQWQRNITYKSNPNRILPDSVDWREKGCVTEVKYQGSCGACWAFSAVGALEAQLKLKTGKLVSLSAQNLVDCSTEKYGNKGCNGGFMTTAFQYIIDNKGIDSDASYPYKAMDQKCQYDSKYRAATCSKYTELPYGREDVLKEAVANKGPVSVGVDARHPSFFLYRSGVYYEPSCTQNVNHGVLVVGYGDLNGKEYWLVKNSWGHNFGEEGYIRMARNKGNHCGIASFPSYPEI

Broadly, the bioavailability is the share of a dose that reaches the circulation, judged against a reference dose that is usually intravenous. By half-life is commonly meant the time in which the quantity being followed falls by half. The clearance is the volume of plasma or blood freed of the substance per unit of time. By inhibition in vivo is commonly meant the drop in the measured response relative to a control, in per cent. As a reminder, the fraction unbound is free concentration divided by total concentration. What is called IC50 is the concentration that inhibits the measured activity by half. On to `N#CC1(NC(=O)[C@@H]2CCCC[C@H]2c2oc(-c3ccc(F)cc3)nc2-c2ccc(N3CCS(=O)(=O)CC3)cc2)CC1`, for which the Ratio IC50 is 1460 in the series listed under Homo sapiens; greater than 20000 in [8]; greater than 20000 in [12]; greater than 20000 in [21]; greater than 20000 in series [24]. The bioavailability in [1] was found to be 33%; in series [3], 55%; in [18], 38%. The half-life in [2] was 1.5 h; in series [7], 4.1 h; in series [22], 2.3 h. Moreover, the values for the clearance in series [4], in series [15] and in series [20] were 3.1 mL/min/kg, 18.5 mL/min/kg and 13 mL/min/kg, respectively. Besides, the CLint scaled in series [5] was less than 30 mL/min/kg. Further, the “Cp(f)” value in series [6] came to 190 nM. Further, the inhibition in vivo at 0.03 mg/kg in the series on Canis familiaris [9] turned out to be 4.5%. Moreover, the fraction unbound at 96 h in series [10] was found to be 0.047. Further, the “Drug uptake(free)” value in series [11] was 0.21 µM. Further, the concentration at 96 h in series [13] turned out to be 220 nM; in series [23], 3980 nM. Besides, the inhibition in vivo at 15 mg/kg in the series on Canis familiaris [14] was found to be 91.4%. In addition, in the series on Canis familiaris [16], the inhibition in vivo at 0.1 mg/kg is 47.7%. Also, in the series with Canis familiaris [17], the inhibition in vivo at 0.3 mg/kg is 81.1%. In addition, the IC50 against Cathepsin K [19] was found to be 0.5 nM.

With `N#CC1(NC(=O)[C@@H]2CCCC[C@H]2c2nc(-c3ccc(F)cc3)sc2-c2ccc(N3CCS(=O)(=O)CC3)cc2)CC1`, the Ratio IC50 in the series listed under Homo sapiens was determined as 1430. Moreover, in series [5], the CLint scaled was 55.9 mL/min/kg. The compound also displayed an IC50 on Cathepsin K [19] of 0.6 nM.

As for `N#CC1(NC(=O)[C@@H]2CC(F)(F)CC[C@H]2c2nn(-c3ccc(F)cc3)cc2-c2ccc(N3CCS(=O)(=O)CC3)cc2)CC1`, the Ratio IC50 in the series filed under Homo sapiens amounted to 50. The CLint scaled in [5] was less than 30 mL/min/kg. This compound returned an IC50 at Cathepsin K [25] of 0.5 nM.

In the case of `N#CC1(NC(=O)[C@@H]2CCCC[C@H]2c2nn(-c3ccc(F)cc3)cc2-c2ccc(N3CCS(=O)(=O)CC3)cc2)CC1`, the Ratio IC50 in the series listed under Homo sapiens is 1000. The CLint scaled in [5] was 40.5 mL/min/kg. Moreover, the IC50 at Cathepsin K [19] amounted to 0.5 nM.

On to `N#CC1(NC(=O)[C@@H]2CC(Cl)(Cl)CC[C@H]2c2nn(CC(F)(F)F)cc2-c2ccc(C(=O)N3CCOCC3)cc2)CC1`, for which the Ratio IC50 in the series listed under Homo sapiens was 246. In addition, half-maximal inhibition at Cathepsin K [25] (IC50) required 1 nM.

As for `N#CC1(NC(=O)[C@@H]2CC(Cl)(Cl)CC[C@H]2c2nn(CC(F)(F)F)cc2-c2ccc(N3CCS(=O)(=O)CC3)cc2)CC1`, the Ratio IC50 in the series listed under Homo sapiens stood at 314. In addition, half-maximal inhibition against Cathepsin K [25] (IC50) was put at 0.5 nM.

Take `COc1cccc(-n2cc(-c3ccc(N4CCS(=O)(=O)CC4)cc3)c([C@@H]3CCCC[C@H]3C(=O)NC3(C#N)CC3)n2)c1`: the Ratio IC50 in the series listed under Homo sapiens was found to be 716. The CLint scaled in series [5] was determined as 244 mL/min/kg. This compound had an IC50 at Cathepsin K [19] of 0.7 nM.

On to `CS(=O)(=O)N1CC(c2ccc(-c3cn(CC(F)(F)F)nc3[C@@H]3CCC(F)(F)C[C@H]3C(=O)NC3(C#N)CC3)cc2)C1`, for which the Ratio IC50 in the series listed under Homo sapiens was found to be 82. Besides, the IC50 against Cathepsin K [25] was found to be 0.6 nM.

`N#CC1(NC(=O)[C@@H]2CC(F)(F)CC[C@H]2c2nn(CC(F)(F)F)cc2-c2ccc(-c3ncco3)cc2)CC1`: the Ratio IC50 in the series listed under Homo sapiens was determined as 62. The midpoint of inhibition against Cathepsin K [25], the IC50, lay at 1 nM.

Turning to `N#CC1(NC(=O)[C@@H]2CC(F)(F)CC[C@H]2c2nn(CC(F)(F)F)cc2-c2ccc(N3CCS(=O)(=O)CC3)cc2)CC1`, the Ratio IC50 in the series listed under Homo sapiens was 380. Besides, half-maximal inhibition against Cathepsin K [19] (IC50) required 0.7 nM.

Consider `N#CC1(NC(=O)[C@@H]2CCCC[C@H]2c2nn(CC(F)(F)F)cc2-c2ccc(N3CCS(=O)(=O)CC3)cc2)CC1`, for which, in the series filed under Homo sapiens, the Ratio IC50 worked out at 1280. The IC50 against Cathepsin K [19] was 6.9 nM.

For `CS(=O)(=O)c1ccc(-c2cn(CC(F)(F)F)nc2[C@@H]2CCC(Cl)(Cl)C[C@H]2C(=O)NC2(C#N)CC2)cc1`, the Ratio IC50 in the series listed under Homo sapiens was found to be 40; in series [8], 1360; in series [12] it was 714; in series [21] it was 5560; in [24], 1710. Besides, at Cathepsin K [19], half-maximal inhibition (IC50) was put at 1.8 nM.

With `N#CC1(NC(=O)[C@@H]2CCCC[C@H]2c2nn(CC3CC3)cc2-c2ccc(N3CCS(=O)(=O)CC3)cc2)CC1`, the Ratio IC50 in the series listed under Homo sapiens came to 1180. Further, the IC50 at Cathepsin K [19] was 5.3 nM.
